Data from PMC10553834, “Differentiating the roles of Mycobacterium tuberculosis substrate binding proteins, FecB and FecB2, in iron uptake” (PLOS Pathogens, 2023).

Tests used:
Type in all cases: binding
FecB Q233S = FecB Q233S (Mycobacterium tuberculosis, UniProt O53291, Q233S)
FecB D332S = FecB D332S (Mycobacterium tuberculosis, UniProt O53291, D332S)
FecB Y270S = FecB Y270S (Mycobacterium tuberculosis, UniProt O53291, Y270S)
FecB R240S = FecB R240S (Mycobacterium tuberculosis, UniProt O53291, R240S)
FecB E272S = FecB E272S (Mycobacterium tuberculosis, UniProt O53291, E272S)
FecB L163R = FecB L163R (Mycobacterium tuberculosis, UniProt O53291, L163R)
FecB R141S = FecB R141S (Mycobacterium tuberculosis, UniProt O53291, R141S)
FecB Q336S = FecB Q336S (Mycobacterium tuberculosis, UniProt O53291, Q336S)

With ferric-carboxymycobactin [Fe-cMB] the Kd (FecB Q233S) was 1.05 µM, the Kd (FecB D332S) was 0.99 µM and the Kd (FecB Y270S) was 0.94 µM. The Kd (FecB R240S) was 1.1 µM, the Kd (FecB E272S) was 1.73 µM and the Kd (FecB L163R) was 1.16 µM. The Kd (FecB R141S) was 1.13 µM and the Kd (FecB Q336S) was 1.4 µM.
